Experimental data published in patent US5491135A (priority 1993, dated 1996).
“And” between values parts separate entries of the source, which are not always exact repeats. Identical values can stand only once. “Also recorded” adds a separate entry of the source.

Tested on: HCMV strain AD 169
Test: Rabbit HCMV ascending dose efficacy and time course recovery (Example 7)
Conditions: for Vitreo-retinal score: sum of both eyes
[1] = day 3, PALA 75 mg/kg/d, with or without steroid
[2] = day 3, PALA 50 or DHPG 10 mg/kg/d
[3] = day 4, PALA 75 mg/kg/d, with or without steroid
[4] = day 4, PALA 50 or DHPG 10 mg/kg/d
[5] = day 5, PALA 75 mg/kg/d, with or without steroid
[6] = day 5, PALA 50 or DHPG 10 mg/kg/d
[7] = day 6, PALA 75 mg/kg/d, with or without steroid

For `O=C(O)C[C@H](NC(=O)CP(=O)(O)O)C(=O)O` [PALA], the “HCMV recovery vs placebo” value (PALA 75 mg/kg/day) was “comparable to placebo therapy”, the “clinical disease / efficacy” value (PALA 75 mg/kg/day i.v., with or without steroid) was “vitreitis increased through day 6 post inoculation; also recorded: not improved when compared to the 50 mg/kg/day PALA dose or to the 10 mg/kg/day DHPG dose” and the “HCMV recovery vs placebo” value (PALA 100 mg/kg/day) was “significantly higher than HCMV recovery in placebo treated animals”. The “clinical disease / efficacy” value (PALA 100 mg/kg/day i.v.) was “Both the vitreitis and optic nerve head disease severity were increased compared to other single-agent PALA, DHPG and placebo therapies; also recorded: not effective in reducing the clinical disease progression or HCMV recovery”, the toxicity (PALA 100 mg/kg/day i.v.) was “toxic to the animals; also recorded: animal died prior” and the “clinical disease / efficacy” value (PALA 50 or DHPG 10 mg/kg/day i.v.) was “vitreitis increased through day 6 post inoculation; also recorded: optic nerve head pathology peaked on day 4 after inoculation and decreased to low levels”. For the same molecule, the “HCMV Recovered, OD” value [1] was “+”, the “HCMV Recovered, OS” value [1] was “+” and the “HCMV Titer, OD” value [1] was 10^5 pfu and 10^4 pfu. The “HCMV Titer, OS” value [1] was 10^4 pfu, the HCMV recovery frequency [1] was 4/4 and the “Optic neuritis score (ONH)” value [1] was 2.0. For the same molecule, the Vitreo-retinal score [1] was 2.25 and 1.5, the “Average HCMV titer” value (day 3, PALA 100 mg/kg/d) was 10^4 pfu and the “HCMV Recovered, OD” value (day 3, PALA 100 mg/kg/d) was “+”. The “HCMV Recovered, OS” value (day 3, PALA 100 mg/kg/d) was “+”, the “HCMV Titer, OD” value (day 3, PALA 100 mg/kg/d) was 10^4 pfu and the “HCMV Titer, OS” value (day 3, PALA 100 mg/kg/d) was 10^3 pfu. For the same molecule, the HCMV recovery frequency (day 3, PALA 100 mg/kg/d) was 4/4, the “Optic neuritis score (ONH)” value (day 3, PALA 100 mg/kg/d) was 2.0 and 3.0 and the Vitreo-retinal score (day 3, PALA 100 mg/kg/d) was 1.0 and 0.75. For the same molecule, the “HCMV Recovered, OD” value [2] was “+”, the “HCMV Recovered, OS” value [2] was “+” and the “HCMV Titer, OD” value [2] was 10^3 pfu and 10^4 pfu. For the same molecule, the “HCMV Titer, OS” value [2] was 10^4 pfu and 10^3 pfu, the HCMV recovery frequency [2] was 4/4 and the “Optic neuritis score (ONH)” value [2] was 2.0. The Vitreo-retinal score [2] was 1.0 and 1.5, the “HCMV Recovered, OD” value [3] was “+” and the “HCMV Recovered, OS” value [3] was “+ and -”. The “HCMV Titer, OD” value [3] was 10^4 pfu, the “HCMV Titer, OS” value [3] was 10^3 pfu and the HCMV recovery frequency [3] was 3/4. The “Optic neuritis score (ONH)” value [3] was 4.0 and 5.0, the Vitreo-retinal score [3] was 2.75 and 3.5 and the “Average HCMV titer” value (day 4, PALA 100 mg/kg/d) was 10^3 pfu. The “HCMV Recovered, OD” value (day 4, PALA 100 mg/kg/d) was “+”, the “HCMV Recovered, OS” value (day 4, PALA 100 mg/kg/d) was “+” and the “HCMV Titer, OD” value (day 4, PALA 100 mg/kg/d) was 10^5 pfu and 10^3 pfu. For the same molecule, the “HCMV Titer, OS” value (day 4, PALA 100 mg/kg/d) was 10^3 pfu and 10^4 pfu, the HCMV recovery frequency (day 4, PALA 100 mg/kg/d) was 3/4 and the “Optic neuritis score (ONH)” value (day 4, PALA 100 mg/kg/d) was 6.0 and 5.0. For the same molecule, the Vitreo-retinal score (day 4, PALA 100 mg/kg/d) was 4.5 and 3.75, the “HCMV Recovered, OD” value [4] was “- and +” and the “HCMV Recovered, OS” value [4] was “-”. For the same molecule, the “HCMV Titer, OD” value [4] was 10^4 pfu, the HCMV recovery frequency [4] was 1/4 and the “Optic neuritis score (ONH)” value [4] was 2.0 and 3.0. For the same molecule, the “Average HCMV titer” value [5] was 10^2 pfu, the “HCMV Recovered, OD” value [5] was “-” and the “HCMV Recovered, OS” value [5] was “- and +”. The “HCMV Titer, OS” value [5] was 10^2 pfu, the HCMV recovery frequency [5] was 1/4 and the “Optic neuritis score (ONH)” value [5] was 3.0 and 5.0. For the same molecule, the Vitreo-retinal score [5] was 1.75 and 3.5, the “Average HCMV titer” value (day 5, PALA 100 mg/kg/d) was 10^2 pfu and the “HCMV Recovered, OD” value (day 5, PALA 100 mg/kg/d) was “-”. For the same molecule, the “HCMV Recovered, OS” value (day 5, PALA 100 mg/kg/d) was “+ and -”, the “HCMV Titer, OS” value (day 5, PALA 100 mg/kg/d) was 10^2 pfu and the HCMV recovery frequency (day 5, PALA 100 mg/kg/d) was 1/4. The HCMV titer (day 5, PALA 100 mg/kg/d) was 10^2 pfu/ml, the “Optic neuritis score (ONH)” value (day 5, PALA 100 mg/kg/d) was 5.0 and 4.0 and the Vitreo-retinal score (day 5, PALA 100 mg/kg/d) was 3.5 and 3.0. For the same molecule, the “Average HCMV titer” value [6] was 10^1 pfu, the “HCMV Recovered, OD” value [6] was “- and +” and the “HCMV Recovered, OS” value [6] was “+ and -”. The “HCMV Titer, OD” value [6] was 10^2 pfu, the “HCMV Titer, OS” value [6] was 10^2 pfu and the HCMV recovery frequency [6] was 2/4. The “Optic neuritis score (ONH)” value [6] was 1.0, the Vitreo-retinal score [6] was 0.65 and 1.25 and the “HCMV Titer, OS” value (day 6, PALA 50 mg/kg/d) was 10^3 pfu and 10^2 pfu. The HCMV titer (day 6, PALA 50 mg/kg/d) was 10^2 pfu/ml, the “HCMV Recovered, OD” value [7] was “+ and -” and the “HCMV Recovered, OS” value [7] was “+ and -”. The “HCMV Titer, OD” value [7] was 10^3 pfu, the “HCMV Titer, OS” value [7] was 10^4 pfu and the HCMV recovery frequency [7] was 3/4 and 2/4. For the same molecule, the “Optic neuritis score (ONH)” value [7] was 2.0, the “HCMV Recovered, OD” value (day 6, PALA 100 mg/kg/d) was “+” and the “HCMV Recovered, OS” value (day 6, PALA 100 mg/kg/d) was “- and +”. The “HCMV Titer, OD” value (day 6, PALA 100 mg/kg/d) was 10^2 pfu, the “HCMV Titer, OS” value (day 6, PALA 100 mg/kg/d) was 10^3 pfu and the HCMV recovery frequency (day 6, PALA 100 mg/kg/d) was 3/4. For the same molecule, the “Optic neuritis score (ONH)” value (day 6, PALA 100 mg/kg/d) was 4.0.
